The target in the experiment is indoleamine 2, 3-dioxygenase (IDO1) (Homo sapiens, UniProt P14902). The experiment is described as follows: PBMC IDO1 assay (kynurenine via mass spectrometry). The class given is cell-based. The following applies: for IC50: human PBMC stimulated with IFN-γ and LPS, 2 days, kynurenine by mass spectrometry, recorded as pIC50, read-out: PBMC PXC50_ (converted). How it is done: Compounds of the present invention were tested via high-throughput cellular assays utilizing detection of kynurenine via mass spectrometry and cytotoxicity as end-points. For the mass spectrometry and cytotoxicity assays, human peripheral blood mononuclear cells (PBMC) (PB003F; AllCells®, Alameda, Calif.) were stimulated with human interferon-γ (IFN-γ) (Sigma-Aldrich Corporation, St. Louis, Mo.) and lipopolysaccharide from Salmonella minnesota (LPS) (Invivogen, San Diego, Calif.) to induce the expression of indoleamine 2, 3-dioxygenase (IDO1). Compounds with IDO1 inhibitory properties decreased the amount of kynurenine produced by the cells via the tryptophan catabolic pathway. Cellular toxicity due to the effect of compound treatment was measured using CellTiter-Glo® reagent (CTG) (Promega Corporation, Madison, Wis.), which is based on luminescent detection of ATP, an indicator of metabolically active cells.
In preparation for the assays, test compounds were serially diluted 3-fold in DMSO from a typical top concentration of 5 mM and plated at 0.5 μL in 384-well, polystyrene, clear bottom, tissue culture treated plates with lids (Greiner Bio-One, Kremsmünster, Austria) to generate 11-point dose response curves. Low control wells (0% kynurenine or 100% cytotoxicity) contained either 0.5 μL of DMSO in the presence of unstimulated (-IFN-γ/-LPS) PBMCs for the mass spectrometry assay or 0.5 μL of DMSO in the absence of cells for the cytotoxicity assay, and high control wells (100% kynurenine or 0% cytotoxicity) contained 0.5 μL of DMSO in the presence of stimulated (+IFN-γ/+LPS) PBMCs for both the mass spectrometry and cytotoxicity assays.
Frozen stocks of PBMCs were washed and recovered in RPMI 1640 medium (Thermo Fisher Scientific, Inc., Waltham, Mass.) supplemented with 10% v/v heat-inactivated fetal bovine serum (FBS) (Thermo Fisher Scientific, Inc., Waltham, Mass.), and 1× penicillin-streptomycin antibiotic solution (Thermo Fisher Scientific, Inc., Waltham, Mass.). The cells were diluted to 1,000,000 cells/mL in the supplemented RPMI 1640 medium. 50 μL of either the cell suspension, for the mass spectrometry assay, or medium alone, for the cytotoxicity assay, were added to the low control wells, on the previously prepared 384-well compound plates, resulting in 50,000 cells/well or 0 cells/well respectively. IFN-γ and LPS were added to the remaining cell suspension at final concentrations of 100 ng/ml and 50 ng/ml respectively, and 50 μL of the stimulated cells were added to all remaining wells on the 384-well compound plates. The plates, with lids, were then placed in a 37° C., 5% CO2 humidified incubator for 2 days.
Following incubation, the 384-well plates were removed from the incubator and allowed to equilibrate to room temperature for 30 minutes. For the cytotoxicity assay, CellTiter-Glo® was prepared according to the manufacturer's instructions, and 40 μL were added to each plate well. After a twenty minute incubation at room temperature, luminescence was read on an EnVision® Multilabel Reader (PerkinElmer Inc., Waltham, Mass.). For the mass spectrometry assay, 10 μL of supernatant from each well of the compound-treated plates were added to 40 μL of acetonitrile, containing 10 μM of an internal standard for normalization, in 384-well, polypropylene, V-bottom plates (Greiner Bio-One, Kremsmünster, Austria) to extract the organic analytes. Following centrifugation at 2000 rpm for 10 minutes, 10 μL from each well of the acetonitrile extraction plates were added to 90 μL of sterile, distilled H2O in 384-well, polypropylene, V-bottom plates for analysis of kynurenine and the internal standard on the RapidFire 300 (Agilent Technologies, Santa Clara, Calif.) and 4000 QTRAP MS (SCIEX, Framingham, Mass.). MS data were integrated using Agilent Technologies' RapidFire Integrator software, and data were normalized for analysis as a ratio of kynurenine to the internal standard. […]

Each structure is given as a SMILES string. pIC50: −log10 of the molar value. Like-named read-outs stand apart in the source and are kept apart here.

indoleamine 2, 3-dioxygenase (IDO1), sequence (P14902 whole entry): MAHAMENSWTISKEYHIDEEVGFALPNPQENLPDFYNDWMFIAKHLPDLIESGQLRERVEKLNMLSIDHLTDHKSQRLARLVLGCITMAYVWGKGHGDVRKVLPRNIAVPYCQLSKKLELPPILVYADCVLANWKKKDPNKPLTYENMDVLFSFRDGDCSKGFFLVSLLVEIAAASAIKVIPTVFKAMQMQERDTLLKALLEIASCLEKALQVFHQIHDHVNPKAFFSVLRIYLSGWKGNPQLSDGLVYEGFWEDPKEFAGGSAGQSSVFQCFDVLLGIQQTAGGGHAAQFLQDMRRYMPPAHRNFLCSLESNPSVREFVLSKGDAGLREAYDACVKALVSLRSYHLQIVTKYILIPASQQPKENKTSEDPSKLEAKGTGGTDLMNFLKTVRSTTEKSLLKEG

Consider `Cc1c(F)cccc1OC(=O)N1CCC([C@@H](C)NC(=O)c2ccccc2)CC1` [Example 56, 3-fluoro-2-methylphenyl 4-[(1R)-1-(phenylformamido)ethyl]piperidine-1-carboxylate], for which the IC50 is 25.1 nM. Still for that read-out and setting: as for `COc1ccc(C(=O)NC(c2ccccc2)C2CCN(C(=O)Oc3ccccc3)CC2)cc1F` (stereo not shown) [Example 57, phenyl 4-{[(3-fluoro-4-methoxyphenyl)formamido](phenyl)methyl}piperidine-1-carboxylate], the figure is 39.8 nM; as for `CC(C)C[C@H](NC(=O)c1ccc(Cl)s1)C1CCN(C(=O)Oc2ccccc2)CC1` [Example 58, phenyl 4-[(1S)-1-[(5-chlorothiophen-2-yl)formamido]-3-methylbutyl]piperidine-1-carboxylate], 39.8 nM; as for `CC(C)CC(NC(=O)c1ccc(F)cc1)C1CCN(C(=O)Oc2ccc(Cl)cc2)CC1` (stereo not shown) [Example 59, 4-chlorophenyl 4-{1-[(4-fluorophenyl)formamido]-3-methylbutyl}piperidine-1-carboxylate], 50.1 nM. The same measure, in the same setting: as for `COc1nccc(OC(=O)N2CCC(C(CC(C)C)NC(=O)c3ccc(F)cc3)CC2)c1F` (stereo not shown) [Example 60, 3-fluoro-2-methoxypyridin-4-yl 4-{1-[(4-fluorophenyl)formamido]-3-methylbutyl}piperidine-1-carboxylate], the figure is 50.1 nM; as for `Cc1c(F)cccc1OC(=O)N1CCC(C(NC(=O)c2ccc(F)cc2)C2CC2)CC1` (stereo not shown) [Example 61, 3-fluoro-2-methylphenyl 4-{cyclopropyl[(4-fluorophenyl)formamido]methyl}piperidine-1-carboxylate], 63.1 nM.

Turning to `CC(C)CC(NC(=O)c1ccc(F)cc1)C1CCN(C(=O)OCc2ccccc2)CC1` (stereo not shown) [Example 62, benzyl 4-{1-[(4-fluorophenyl)formamido]-3-methylbutyl}piperidine-1-carboxylate], the IC50 is 63.1 nM. Same read-out and setting: as for `CC(C)CC(NC(=O)c1ccc(Cl)cc1)C1CCN(C(=O)OCc2nccs2)CC1` (stereo not shown) [Example 64, (1,3-thiazol-2-yl)methyl 4-{1-[(4-chlorophenyl)formamido]-3-methylbutyl}piperidine-1-carboxylate], the figure is 79.4 nM; as for `O=C(NC(c1ccncc1)C1CCN(C(=O)Oc2ccccc2)CC1)c1ccc(F)cc1` (stereo not shown) [Example 65, phenyl 4-{[(4-fluorophenyl)formamido](pyridin-4-yl)methyl}piperidine-1-carboxylate], 100 nM. On the same count and under the same terms, as for `O=C(NC(C1CC1)C1CCN(C(=O)Oc2ccccc2)CC1)c1ccc(F)cc1` (stereo not shown) [Example 66, phenyl 4-{cyclopropyl[(4-fluorophenyl)formamido]methyl}piperidine-1-carboxylate], the figure is 100 nM; as for `CC(C)C[C@H](NC(=O)c1ccc(Cl)cc1)C1CCN(C(=O)Oc2ccccc2)CC1` [Example 67, phenyl 4-[(1S)-1-[(4-chlorophenyl)formamido]-3-methylbutyl]piperidine-1-carboxylate], 100 nM; as for `Cc1c(F)cccc1OC(=O)N1CCC([C@@H](C)NC(=O)c2ccc(Cl)cc2)CC1` [Example 68, 3-fluoro-2-methylphenyl 4-[(1R)-1-[(4-chlorophenyl)formamido]ethyl]piperidine-1-carboxylate], 126 nM. On to `CC(C)C[C@H](NC(=O)c1ccc(F)cc1)C1CCN(C(=O)Oc2ccccc2)CC1` [Example 69, phenyl 4-[(1S)-1-[(4-fluorophenyl)formamido]-3-methylbutyl]piperidine-1-carboxylate], for which the IC50 is 126 nM.

Regarding `O=C(NC(C1CC1)C1CCN(C(=O)Oc2ccnc(F)c2)CC1)c1ccc(F)cc1` (stereo not shown) [Example 71, 2-fluoropyridin-4-yl 4-{cyclopropyl[(4-fluorophenyl)formamido]methyl}piperidine-1-carboxylate], the IC50 was 158 nM. In the case of `O=C(NC(c1ccncc1)C1CCN(C(=O)Oc2cccnc2F)CC1)c1ccc(F)cc1` (stereo not shown) [Example 72, 2-fluoropyridin-3-yl 4-{[(4-fluorophenyl)formamido](pyridin-4-yl)methyl}piperidine-1-carboxylate], the pIC50 (in general, −log10 of the IC50, conventionally taken in molar units) was 6.80. As for `O=C(NC(c1ccccc1)C1CCN(C(=O)Oc2ccccc2)CC1)c1ccc(C(F)(F)F)cc1` (stereo not shown) [Example 73, phenyl 4-[phenyl({[4-(trifluoromethyl)phenyl]formamido})methyl]piperidine-1-carboxylate], the IC50 is 158 nM. Still for that read-out and setting: then `CC(NC(=O)c1ccc(F)cc1)C1CCN(C(=O)Oc2ccccc2)CC1` (stereo not shown) [Example 74, phenyl 4-{1-[(4-fluorophenyl)formamido]ethyl}piperidine-1-carboxylate], with 158 nM; and `CC(C)C[C@H](NC(=O)c1ccccc1)C1CCN(C(=O)Oc2ccccc2)CC1` [Example 75, phenyl 4-[(1S)-3-methyl-1-(phenylformamido)butyl]piperidine-1-carboxylate], with 158 nM. As to `COCCC[C@@H](NC(=O)c1ccc(F)cc1)C1CCN(C(=O)Oc2cccnc2F)CC1` [Example 76, 2-fluoropyridin-3-yl 4-[(1R)-1-[(4-fluorophenyl)formamido]-4-methoxybutyl]piperidine-1-carboxylate], the pIC50 is 6.80. On to `O=C(NC(c1ccncc1)C1CCN(C(=O)Oc2ccccc2)CC1)c1ccccc1` (stereo not shown) [Example 77, phenyl 4-[(phenylformamido)(pyridin-4-yl)methyl]piperidine-1-carboxylate], for which the IC50 was 200 nM. The same measure, in the same setting: as for `C#Cc1ccc(C(=O)NC(c2ccccc2)C2CCN(C(=O)OC(C)(C)C)CC2)cc1` (stereo not shown) [Example 78, tert-butyl 4-{[(4-ethynylphenyl)formamido](phenyl)methyl}piperidine-1-carboxylate], the figure is 251 nM; as for `CC(C)CC(NC(=O)c1ccc(F)cc1)C1CCN(C(=O)Oc2ccnc3ccccc23)CC1` (stereo not shown) [Example 79, quinolin-4-yl 4-{1-[(4-fluorophenyl)formamido]-3-methylbutyl}piperidine-1-carboxylate], 316 nM. The same measure, in the same setting: then `Cc1c(F)cccc1OC(=O)N1CCC([C@@H](CCCO)NC(=O)c2ccc(F)cc2)CC1` [Example 80, 3-fluoro-2-methylphenyl 4-[(1R)-1-[(4-fluorophenyl)formamido]-4-hydroxybutyl]piperidine-1-carboxylate], with 316 nM; and `O=C(NC(C1CC1)C1CCN(C(=O)Oc2ccncc2)CC1)c1ccc(F)cc1` (stereo not shown) [Example 81, pyridin-4-yl 4-{cyclopropyl[(4-fluorophenyl)formamido]methyl}piperidine-1-carboxylate], with 398 nM; and `CC(C)OCC(NC(=O)c1ccc(F)cc1)C1CCN(C(=O)Oc2ccccc2)CC1` (stereo not shown) [Example 82, phenyl 4-{1-[(4-fluorophenyl)formamido]-2-(propan-2-yloxy)ethyl}piperidine-1-carboxylate], with 398 nM. With `CC(C)CC(NC(=O)c1nnc(Cl)s1)C1CCN(C(=O)Oc2ccccc2)CC1` (stereo not shown) [Example 83, phenyl 4-{1-[(5-chloro-1,3,4-thiadiazol-2-yl)formamido]-3-methylbutyl}piperidine-1-carboxylate], the IC50 was 501 nM. The same measure, in the same setting: as for `CC(C)CC(NC(=O)c1ccc(F)cc1)C1CCN(C(=O)OC2CCNc3ccccc32)CC1` (stereo not shown) [Example 84, 1,2,3,4-tetrahydroquinolin-4-yl 4-{1-[(4-fluorophenyl)formamido]-3-methylbutyl}piperidine-1-carboxylate], the figure is 501 nM; as for `CC(C)(C)OC(=O)N1CCC(C(NC(=O)c2cccc3cc[nH]c23)c2ccccc2)CC1` (stereo not shown) [Example 85, tert-butyl 4-{[(1H-indol-7-yl)formamido](phenyl)methyl}piperidine-1-carboxylate], 631 nM.

The values are drawn from US10927078B2, “Modulators of indoleamine 2,3-dioxygenase” (GLAXOSMITHKLINE INTELLECTUAL PROPERTY DEVELOPMENT LIMITED, priority 2017, dated 2021).
